Test [1] relates to E. coli ATCC 25922. The test can be described thus: Cell membrane permeabilization, propidium iodide flow cytometry. The test is classed as cell-based, Escherichia coli. The settings on record: for Membrane permeabilization (% PI +cells): compound at its MIC, 40 min, 5 × 10^6 CFU/mL, supplemented M9, mean of n = 3. The procedure: (§1) Membrane permeabilization of bacteria was then assessed by incubating bacteria at 37 °C, in a final volume of 1 mL, with varying concentrations of each peptide or antibiotic used for the BONCAT assay. 5 min before the ending of the selected incubation time (40 min), propidium iodide probe was added to the samples to a final concentration of 10 μg/mL before analysis using a flow cytometer. A positive control consisted of E. coli cells dehydrated with ethanol (as described above), while untreated cells were used as negative control. The fluorescence of untreated cells was used to establish the gating for positive PI-stained cells. Fixed bacterial cells, subjected to the click chemistry reaction to link the Alexa Fluor azide 488 probe, were analysed by flow cytometry and, among the gates-selected ones, only those that tested positive for Propidium Iodide, and thus permeabilized, were considered for the calculation of the mean fluorescence intensity (MFI) of the Alexa Fluor azide 488.
(§2) Samples were analyzed by an Attune NxT® (ThermoFisher) equipped with a blue laser (488 nm) and photomultiplier tubes (PMTs) BL1 (525/50) and BL3 (695/40) to collect fluorescence. All parameters were set in logarithmic scale and the signals were recorded as Area. Forward scattering (FSC) was set to 300 mV, side scattering (SSC) to 350 mV and thresholds to 0.2 for FSC and 0.5 for SSC. The compensation matrix was performed according to the tool software. Hierarchical gates and acquisition flow rate (200 μL/min) were set to avoid coincident events. The files were saved as FCS 3.1 and analysed by FCS Express De Novo software v7. Flow cytometry data are presented as means ± SD from three independent experiments (n = 3).

Test [2] has as its system K. pneumoniae ATCC 700603. The description is as above. The test is classed as cell-based, Klebsiella pneumoniae. The settings on record: compound at its MIC, 40 min, 5 × 10^6 CFU/mL, supplemented M9; mean of n = 3. Here is the method: as §1, with “An overnight culture of E. coli ATCC 25922, or of K. pneumoniae ATCC 700603, prepared as described above, was diluted to a final concentration of 5 × 10^6 CFU/mL and allowed to adjust for 30 min at 37 °C under shaking. Membrane” for “Membrane”
as §2

For test [3], the system named is E. coli ATCC 25922. The test can be described thus: microbe, parasite or virus in culture. The format is cell-based, Escherichia coli. Particulars: for MIC: 18 h, 37 °C, mode of at least three experiments. The procedure:
[…] Each peptide, diluted at a starting concentration of 128 μM in supplemented M9 medium was added to the first column of wells of a 96-well round-bottom microplate (Sarstedt, Milan, Italy). Serially two-fold dilution (1:1) were performed across subsequent wells to a final volume of 50 μL. 50 μL of bacterial suspension (1 × 10^7 CFU/mL) were then added to each well, to a final bacterial concentration in each well to 5 × 10^6 CFU/mL per well. Untreated bacterial culture was used as growth control, while 100 μL of uninoculated supplemented M9 medium was used to verify the sterility of the medium. The plates were sealed with parafilm to minimize evaporation and incubated at 37 °C for 18 h. The minimum inhibitory concentration (MIC) was visually determined as the lowest peptide concentration in a well with no visible bacterial growth. Data are reported as the mode of at least three independent experiments.

Test [4] deals with E. coli ATCC 25922. In words: BONCAT: HPG incorporation into newly synthesized proteins, flow cytometry. The settings on record: compound at MIC; for Fluorescence Intensity (% of Control): 10 min pre-incubation then 30 min HPG, untreated = 100%, mean, n ≥ 3; for Decrease in fluorescence compared to untreated bacteria: 40 min total incubation (10 min + 30 min HPG). The format is cell-based, Escherichia coli. Here is the method:
(§3) We used a modified protocol from [Lindivat et al. (2020)]. Briefly, overnight cultures of E. coli ATCC 25922 or K. pneumoniae ATCC 700603, prepared as described above, were diluted to a final concentration of 5×10^6 CFU/mL and allowed to adjust for 30 min at 37 °C. The culture was then incubated at 37 °C in the dark for 10 or 30 min in the presence or absence of each peptide or antibiotic at various concentrations, with a final volume of 1 mL. At this point, only in certain specified experimental assays, the compounds were removed from the supernatant by centrifugation (16,000 × g for 5 min) and bacteria were washed and resuspended in fresh supplemented M9 medium. Then, 32 μL of a 500 μM homopropargylglycine (HPG) solution were added to each sample, resulting in a final concentration of 16 μM in a finale volume of 1 mL. Also included in each assay were two untreated controls containing only bacteria and bacteria treated with 16 μM HPG alone, respectively. All samples were then incubated at 37 °C in the dark for 30 min. After incubation, samples were washed once with 1X filtered Phosphate Buffered Saline (PBS) (centrifuged at 16,000 x g for 5 min) and resuspended in PBS. After washing, samples were fixed with formaldehyde (Sigma Aldrich, USA) to a final concentration of 3% in 1 mL for 1 h at 25 °C. Subsequently, the samples were centrifuged at 16,000 x g for 5 min and resuspended in 1 mL of PBS. If not analysed immediately, the fixed samples were stored at 4 °C prior to performing the click chemistry reaction. Samples were centrifugated at 16,000 x g for 5 min and bacteria cells were dehydrated by ethanol that was added sequentially to achieve a final concentration of 50% (v/v) (3 min of incubation), 80% (v/v) (3 min of incubation), and 95% (v/v) (3 min of incubation). After dehydration, the samples were centrifugated (16,000 × g, 5 min) and resuspended in PBS. For cell analysis by SDS-PAGE, the following variations were implemented: bacterial cells were diluted in supplemented M9 medium to a final density of ~ 1 × 10^9 CFU/mL, and HPG was added to the samples at a final concentration of 160 μM. Bacteria were incubated with HPG for 0, 15, 30, 60, or 120 min at 37 °C in the dark.
(§4) The click reaction was carried out according to [Rostovtsev et al. (2002)]. 15 μL of a pre-mix solution (prepared as described above) were added to each sample containing fixed bacteria that had incorporated HPG (30 μL of pre-mix solution in case of samples prepared for SDS-PAGE analysis), resulting in the following final concentrations in each sample: 0.1 mM copper sulfate, 0.5 mM Tris (3-hydroxypropyltriazolylmethyl)amine (THPTA), and 2.5 μM Alexa Fluor azide 488. Additionally, 50 μL of freshly prepared 100 mM sodium ascorbate and 50 μL of 100 mM aminoguanidine were added (100 μL in case of samples prepared for SDS-PAGE analysis), bringing the final volume to 1 mL. The samples were gently inverted once to mix and incubated for 30 min in the dark at 25 °C. Finally, each sample was washed with PBS once (centrifuged at 16,000 × g for 5 min) and resuspended in 1 mL PBS.
An overnight culture of E. coli ATCC 25922, or of K. pneumoniae ATCC 700603, prepared as described above, was diluted to a final concentration of 5 × 10^6 CFU/mL and allowed to adjust for 30 min at 37 °C under shaking. Membrane permeabilization of bacteria was then assessed by incubating bacteria at 37 °C, in a final volume of 1 mL, with varying concentrations of each peptide or antibiotic used for the BONCAT assay. 5 min before the ending of the selected incubation time (40 min), propidium iodide probe was added to the samples to a final concentration of 10 μg/mL before analysis using a flow cytometer. A positive control consisted of E. coli cells dehydrated with ethanol (as described above), while untreated cells were used as negative control. The fluorescence of untreated cells was used to establish the gating for positive PI-stained cells. […]

Test [5] concerns E. coli ATCC 25922. In words: Post-antibiotic effect (PAE), growth kinetics after washout. The settings on record: 30 min treatment at MIC, OD600 every hour for 18 h in MHB, mean ± SD, n = 3. The test is classed as cell-based, Escherichia coli. The procedure:
An overnight culture of E. coli ATCC 25922, prepared as described above, was diluted to a final concentration of 5 × 10^6 CFU/mL and then incubated at 37 °C for 30 min in the presence or absence of each peptide or antibiotic at various concentrations, with a final volume of 1 mL. To measure the post-antibiotic effect (PAE) of antimicrobials, the compounds were removed from the supernatant by centrifugation (16,000 × g for 5 min) and bacteria were washed and resuspended in 1 mL of fresh supplemented MHB medium, to promote faster growth visible as increased absorbance. 200 μL of each sample was then transferred to a 96-well round-bottom microplate (Sarstedt, Milan, Italy), which was then placed in a Nanoquant Infinite-M200Pro plate reader with stable temperature at 37 °C. Each sample was surrounded by water-filled wells to reduce its own evaporation. Optical density at 600 nm was then recorded for each sample every hour for up to 18 h. PAE was calculated according to [Holfeld et al. (2018)] as the difference between the time needed for a cell culture incubated with an antibiotic substance to reach half-maximum absorbance of the control culture and the time that the control culture needed to reach half-maximum absorbance of the stationary phase. According to this definition, the PAE of each compound (expressed as time) was calculated based on the OD₆₀₀ value of its respective replicate, which corresponded to half of the maximum absorbance reached by the control culture in the stationary phase (at 18 h). The mean PAE values (PAE in hours) of each compound, were obtained by averaging the times from the three independent experiments.

The test system of test [6] is K. pneumoniae ATCC 700603. The test can be described thus: microbe, parasite or virus in culture. The test is classed as cell-based, Klebsiella pneumoniae. The settings on record: for MIC: 18 h, 37 °C, mode of at least three experiments. Here is the method: […] […] Serially two-fold dilution (1:1) were performed across subsequent wells to a final volume of 50 μL. […] […] The plates were sealed with parafilm to minimize evaporation and incubated at 37 °C for 18 h. The minimum inhibitory concentration (MIC) was visually determined as the lowest peptide concentration in a well with no visible bacterial growth. Data are reported as the mode of at least three independent experiments.

The test system of test [7] is K. pneumoniae ATCC 700603. The test can be described thus: BONCAT: HPG incorporation into newly synthesized proteins, flow cytometry. The format is cell-based, Klebsiella pneumoniae. The settings on record: compound at MIC, 10 min pre-incubation then 30 min HPG; untreated = 100%; mean, n ≥ 3. The procedure:
as §3
as §4, with “Finally, each sample was washed with PBS once (centrifuged at 16,000 × g for 5 min) and resuspended in 1 mL PBS.” left out
An overnight culture of E. coli ATCC 25922, or of K. pneumoniae ATCC 700603, prepared as described above, was diluted to a final concentration of 5 × 10^6 CFU/mL and allowed to adjust for 30 min at 37 °C under shaking. Membrane permeabilization of bacteria was then assessed by incubating bacteria at 37 °C, in a final volume of 1 mL, with varying concentrations of each peptide or antibiotic used for the BONCAT assay. […] The fluorescence of untreated cells was used to establish the gating for positive PI-stained cells. […]

[8] abbreviates: Mueller Hinton, 2,5x10^5 CFU/mL.

From paper PMC12748266, “Testing antimicrobial peptides inhibiting protein synthesis in living E. coli and K. pneumoniae using bio-orthogonal non-canonical amino-acid tagging” (Frontiers in Microbiology, 2025) come the findings set out here.

In brackets after ≈: the same amount, converted by molar mass. Like-named read-outs stand apart in the source and are kept apart here. Marks after values point to notes of the source that are not given here.

For `CCO` [Ethanol], the “Membrane permeabilization (% PI +cells)” value with E. coli ATCC 25922 [1] is 78%; in the test on E. coli ATCC 25922 [1] (listed as EtOH) it was 78%; in test [2], 96%.
Regarding `CCn1cc(C(=O)O)c(=O)c2ccc(C)nc21` [NDX, Nalidixic Acid], the MIC in the test with E. coli ATCC 25922 [3] (Escherichia coli, ATCC25922, 18 h, supplemented M9 medium, 5 × 10^6 CFU/mL, visual, read-out: MIC) came out at 16 µM (≈ 3.72 µg/mL). Also, in the test with E. coli ATCC 25922 [1], the “Membrane permeabilization (% PI +cells)” value is less than 1%. In the test on E. coli ATCC 25922 [4], the “Fluorescence Intensity (% of Control)” value is given as 107 % of Control and the “Decrease in fluorescence compared to untreated bacteria” value is given as “did not affect fluorescence intensity”. This compound also registered a PAE with E. coli ATCC 25922 [5] of 0.8 ± 0.4 h.
Take `CN(C)[C@@H]1C(O)=C(C(N)=O)C(=O)[C@@]2(O)C(O)=C3C(=O)c4c(O)cccc4[C@@](C)(O)[C@H]3C[C@@H]12` [TET, tetracycline]: the MIC in test [6] (Klebsiella pneumoniae, ATCC700603, supplemented M9 medium, 5 × 10^6 CFU/mL, visual) was 32 µM (≈ 14.2 µg/mL). Moreover, the “Membrane permeabilization (% PI +cells)” value in test [2] is less than 1%. In test [7], the “Fluorescence Intensity (% of Control)” value is reported as 37 % of Control.
Regarding Colistin, the “Fold increase in MIC on 20-fold increase in cell density” value in the test on E. coli ATCC 25922 [3] (MHB, 5×10^6 vs 2,5×10^5 CFU/well) is 4-8 fold. For the same compound, the MIC in the test on E. coli ATCC 25922 [3] (setting [8]) is reported as 0,5 * µM; in the test with E. coli ATCC 25922 [3] (Mueller Hinton, 5x10^6 CFU/mL, read-out: MIC) it was 4 µM; in the test with E. coli ATCC 25922 [3] (supplemented M9 medium, 5 × 10^6 CFU/mL, visual, read-out: MIC) it was 16 µM; in test [6] (setting [8]), 1 µM; in test [6] (supplemented M9 medium, 5 × 10^6 CFU/mL, visual) it was 16 µM. The “Fold increase in MIC in M9 medium compared to MHB” value in the test on E. coli ATCC 25922 [3] (same bacterial concentration) is 2-4 fold. The “Fold increase in MIC, BONCAT conditions vs standard conditions” value in test [6] (supplemented M9 5×10^6 CFU/well vs MHB 2,5×10^5 CFU/well) is listed as 16 fold. For the same compound, the “Permeabilized cells (PI+)” value with E. coli ATCC 25922 [1] (colistin 0,5 µM (MIC) at 2,5x10^5 CFU/mL, 40 minutes of incubation) was “around 50%”. Besides, the figures for the “Membrane permeabilization (% PI +cells)” value with E. coli ATCC 25922 [1], in the test with E. coli ATCC 25922 [1] (listed as Colistin) and with E. coli ATCC 25922 [1] (listed as colistin) were 1%, 1% and “no membrane permeabilization”, respectively. For the same compound, the “Fluorescence Intensity (% of Control)” value in the test on E. coli ATCC 25922 [4] is 87 % of Control. Besides, the “Decrease in fluorescence compared to untreated bacteria” value in the test on E. coli ATCC 25922 [4] is listed as “nor decreased bacterial fluorescence”.
